Reference: publication PMC4588393 (EBioMedicine, 2015)
Where a name gives a salt, the structure may show the parent alone. Bridge positions count the residues as written; N and C are the ends. Square brackets hold non-standard residues; d marks the D form. Peptide text beside a SMILES is read from it. * marks the point of attachment. X1 = CC[C@H](C)CCCCC(=O)*; Dab = NCC[C@H](N)C(=O)O

Assays:
S. Typhimurium 14028 = format: cell-based, Salmonella enterica Typhimurium
[1] = test system: TIVAR + S. Typhimurium 14028; parameters: species or system BALB/c mice; settings: in vivo
[2] = in vivo; cited from earlier work
[3] = test system: TIVAR − S. Typhimurium var. 5 (04)-9639; parameters: species or system BALB/c mice; settings: in vivo

SMILES	effect of pH and media composition on efficacy of antibiotic (S. Typhimurium 14028)	resistance linked to growth in LPM pH 5.5 medium (MIC ratio of LPM pH 5.5/pH 7.0 to MHB pH 5.5/pH 7.2) (S. Typhimurium 14028) [fold]	further results
CO/N=C(\C(=O)N[C@@H]1C(=O)N2C(C(=O)O)=C(CSC(=O)c3ccco3)CS[C@H]12)c1csc(N)n1 [Ceftiofur, ceftiofur]	unaffected		
O=C(N[C@H](CO)[C@H](O)c1ccc([N+](=O)[O-])cc1)C(Cl)Cl [Chloramphenicol, chloramphenicol]	unaffected		
O=C(O)c1cn(C2CC2)c2cc(N3CCNCC3)c(F)cc2c1=O [Ciprofloxacin, ciprofloxacin]			mouse survival post-infection [1]: at least 10 days
CC[C@H](C)CCCCC(=O)N[C@@H](CCN)C(=O)N[C@H](C(=O)N[C@@H](CCN)C(=O)N[C@H]1CCNC(=O)[C@H]([C@@H](C)O)NC(=O)[C@H](CCN)NC(=O)[C@H](CCN)NC(=O)[C@H](CC(C)C)NC(=O)[C@@H](CC(C)C)NC(=O)[C@H](CCN)NC1=O)[C@@H](C)O [Colistin sulfate, colistin sulfate] (X1-[Dab]T[Dab][Dab][Dab][dL]L[Dab][Dab]T; lactam 4-C (inferred); N-terminus assumed)		256	
CC[C@H](C)CCCCC(=O)N[C@@H](CCN)C(=O)N[C@H](C(=O)N[C@@H](CCN)C(=O)N[C@H]1CCNC(=O)[C@H]([C@@H](C)O)NC(=O)[C@H](CCN)NC(=O)[C@H](CCN)NC(=O)[C@H](CC(C)C)NC(=O)[C@@H](Cc2ccccc2)NC(=O)[C@H](CCN)NC1=O)[C@@H](C)O [Polymyxin B, polymyxin B] (X1-[Dab]T[Dab][Dab][Dab][dF]L[Dab][Dab]T; lactam 4-C (inferred); N-terminus assumed)		64	circulating PMB levels [2]: 0.5 to 2.5 mg/L; time within which all treated mice died ([1]; mouse): ≤ 7 days; mouse survival post-infection [3]: at least 10 days
CN(C)[C@@H]1C(O)=C(C(N)=O)C(=O)[C@@]2(O)C(O)=C3C(=O)c4c(O)cccc4[C@@](C)(O)[C@H]3C[C@@H]12 [Tetracycline, tetracycline]	unaffected		
COc1cc(Cc2cnc(N)nc2N)cc(OC)c1OC [Trimethoprim, trimethoprim]		4	
